Test results reported in ChEMBL document CHEMBL5233273, “An overview of hydroxypyranone and hydroxypyridinone as privileged scaffolds for novel drug discovery” (Eur J Med Chem, 2021).
In brackets after ≈: the same amount, converted by molar mass.

Test system: HepG2
Experiment: Cytotoxicity against human HepG2 cells
Format: functional, cell-based

Structure (SMILES)	IC50 [µM]
O=c1cc(CN2CCCC2)oc(CN2CCN(Cc3ccc(Br)c(F)c3)CC2)c1O	32.7
O=c1cc(CN2CCCCC2)oc(CN2CCN(Cc3ccc(Br)c(F)c3)CC2)c1O	37.2

Target: T1, Tyrosinase (Agaricus bisporus, UniProt O42713)
T1 sequence (O42713 whole entry): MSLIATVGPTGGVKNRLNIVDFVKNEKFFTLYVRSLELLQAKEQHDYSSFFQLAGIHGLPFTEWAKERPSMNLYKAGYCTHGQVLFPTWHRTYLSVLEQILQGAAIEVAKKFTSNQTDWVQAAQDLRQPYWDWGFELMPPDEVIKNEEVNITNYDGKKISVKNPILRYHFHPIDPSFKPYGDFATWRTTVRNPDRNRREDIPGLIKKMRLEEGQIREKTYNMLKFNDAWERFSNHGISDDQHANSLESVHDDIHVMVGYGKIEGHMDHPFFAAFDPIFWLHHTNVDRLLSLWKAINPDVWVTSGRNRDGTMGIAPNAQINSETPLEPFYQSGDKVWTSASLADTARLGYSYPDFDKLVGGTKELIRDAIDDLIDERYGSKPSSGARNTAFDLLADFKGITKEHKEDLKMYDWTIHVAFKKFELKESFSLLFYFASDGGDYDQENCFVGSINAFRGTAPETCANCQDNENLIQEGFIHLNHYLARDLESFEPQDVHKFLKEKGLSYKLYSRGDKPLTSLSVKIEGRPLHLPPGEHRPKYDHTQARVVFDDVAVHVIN
Experiment: Inhibition of mushroom tyrosinase monophenolase activity

IC50 [µM]	Structure (SMILES)
1.6	CCCCCCCCn1cc(O)c(=O)cc1/C=N/OCC
12.6	CCCCCCCCn1cc(O)c(=O)cc1COC(=O)[C@@H](N)Cc1ccccc1

Target: T2, Tyrosinase (Agaricus bisporus) (UniProt O42713)
T2 sequence (whole entry): T1 sequence (O42713 whole entry)
Experiment: Potency index, ratio of kojic acid IC50 to test compound IC50 for inhibition of mushroom tyrosinase

Ratio IC50	Structure (SMILES)
5	O=c1cc(CO)oc(CN2CCN(Cc3ccc(Cl)c(Cl)c3)CC2)c1O
155	O=c1cc(Cn2cc(COc3ccc4ccccc4c3)nn2)occ1O
31	O=c1cc(Cn2cc(COc3cccc4ccccc34)nn2)occ1O

Test system: Staphylococcus aureus
Experiment: Antibacterial activity against Staphylococcus aureus
Format: functional

MIC [µg/mL]	Structure (SMILES)
8 (≈ 11 µM)	CCCC(=O)NC(CCCNC(=O)c1c(O)c(=O)ccn1C)(CCCNC(=O)c1c(O)c(=O)ccn1C)CCCNC(=O)c1c(O)c(=O)ccn1C
8 (≈ 9.81 µM)	CCCC(=O)NC(CCCNC(=O)c1c(O)c(=O)ccn1CCO)(CCCNC(=O)c1c(O)c(=O)ccn1CCO)CCCNC(=O)c1c(O)c(=O)ccn1CCO
16 (≈ 65.5 µM)	Cn1cc(O)c(=O)cc1C(=O)Nc1ccccc1
32 (≈ 130 µM)	Cn1cc(O)c(=O)cc1C(=O)Nc1cccnc1

Test system: A549
Experiment: Cytotoxicity against human A549 cells
Format: functional, cell-based

Structure (SMILES)	IC50 [µM]
CC(C)(C)[Si](C)(C)OCc1cc(=O)c(O)c(C(C[N+](=O)[O-])c2cccc(Cl)c2)o1 (stereo not drawn)	9
CC(C)(C)[Si](C)(C)OCc1cc(=O)c(O)c(C(C[N+](=O)[O-])c2ccc(Br)cc2)o1 (stereo not drawn)	8

Test system: HeLa
Experiment: Cytotoxicity against human HeLa cells
Format: functional, cell-based

Structure (SMILES)	IC50 [µM]
CC(C)(C)[Si](C)(C)OCc1cc(=O)c(O)c(C(C[N+](=O)[O-])c2cccc(Cl)c2)o1 (stereo not drawn)	10

Test system: Candida albicans
Experiment: Antifungal activity against Candida albicans ATCC 90028
Format: functional

MIC [µg/mL]	Structure (SMILES)
64 (≈ 201 µM)	Cc1cc(=O)c(O)c(CN2CCN(c3ccccc3F)CC2)o1
64 (≈ 194 µM)	COc1cccc(N2CCN(Cc3oc(C)cc(=O)c3O)CC2)c1
64 (≈ 191 µM)	Cc1cc(=O)c(O)c(CN2CCN(c3ccc(Cl)cc3)CC2)o1
64 (≈ 201 µM)	Cc1cc(=O)c(O)c(CN2CCN(c3ccc(F)cc3)CC2)o1
64 (≈ 191 µM)	Cc1cc(=O)c(O)c(CN2CCN(c3ccccc3Cl)CC2)o1
64 (≈ 213 µM)	Cc1cc(=O)c(O)c(CN2CCN(c3ccccc3)CC2)o1
64 (≈ 204 µM)	Cc1cc(=O)c(O)c(CN2CCN(Cc3ccccc3)CC2)o1
64 (≈ 185 µM)	Cc1cc(=O)c(O)c(CN2CCN(c3ccc([N+](=O)[O-])cc3)CC2)o1
64 (≈ 187 µM)	CC(=O)c1ccc(N2CCN(Cc3oc(C)cc(=O)c3O)CC2)cc1
64 (≈ 179 µM)	Cc1cc(=O)c(O)c(CN2CCN(Cc3ccc4c(c3)OCO4)CC2)o1
64 (≈ 174 µM)	Cc1cc(=O)c(O)c(CN2CCN(c3cccc(C(F)(F)F)c3)CC2)o1
64 (≈ 212 µM)	Cc1cc(=O)c(O)c(CN2CCN(c3ccccn3)CC2)o1
64 (≈ 194 µM)	COc1ccccc1N1CCN(Cc2oc(C)cc(=O)c2O)CC1

Test system: Escherichia coli
Experiment: Antibacterial activity against Escherichia coli
Format: functional

MIC [µg/mL]	Structure (SMILES)
8 (≈ 11 µM)	CCCC(=O)NC(CCCNC(=O)c1c(O)c(=O)ccn1C)(CCCNC(=O)c1c(O)c(=O)ccn1C)CCCNC(=O)c1c(O)c(=O)ccn1C
8 (≈ 9.81 µM)	CCCC(=O)NC(CCCNC(=O)c1c(O)c(=O)ccn1CCO)(CCCNC(=O)c1c(O)c(=O)ccn1CCO)CCCNC(=O)c1c(O)c(=O)ccn1CCO

Test system: Mycolicibacterium smegmatis
Experiment: Antimycobacterial activity against Mycobacterium smegmatis
Format: functional

Structure (SMILES)	MIC [µg/mL]
Cc1cc(=O)c(O)c(CN2CCC(N3CCOCC3)CC2)o1	8 (≈ 25.9 µM)
CCC1CCC(C)N(Cc2oc(C)cc(=O)c2O)C1 (stereo not drawn)	8 (≈ 30.1 µM)
CCOC(=O)C1CCN(Cc2oc(C)cc(=O)c2O)CC1	8 (≈ 27.1 µM)
Cc1cc(=O)c(O)c(CN2CCCCC2C)o1 (stereo not drawn)	8 (≈ 33.7 µM)
Cc1cc(=O)c(O)c(CN2CC(C)CC(C)C2)o1 (stereo not drawn)	8 (≈ 31.8 µM)
Cc1cc(=O)c(O)c(CN2C(C)CCCC2C)o1 (stereo not drawn)	8 (≈ 31.8 µM)
CCCC1CCCCN1Cc1oc(C)cc(=O)c1O (stereo not drawn)	8 (≈ 30.1 µM)

Next, values leading:

MIC [µg/mL]	Structure (SMILES)
8 (≈ 26.6 µM)	Cc1cc(=O)c(O)c(CN2CCC(c3ccccn3)CC2)o1
8 (≈ 31.6 µM)	Cc1cc(=O)c(O)c(CN2CCCC(CO)C2)o1 (stereo not drawn)
8 (≈ 25.5 µM)	Cc1cc(=O)c(O)c(CN2CCC(Cc3ccccc3)CC2)o1
8 (≈ 33.7 µM)	Cc1cc(=O)c(O)c(CN2CCC(C)CC2)o1
8 (≈ 35.8 µM)	Cc1cc(=O)c(O)c(CN2CCCCC2)o1
8 (≈ 33.4 µM)	Cc1cc(=O)c(O)c(CN2CCC(O)CC2)o1

Target: T1, Tyrosinase
Experiment: Inhibition of mushroom tyrosinase diphenolase activity

IC50 [µM]	Structure (SMILES)
7.99	CCCCCCCCn1cc(O)c(=O)cc1/C=N/OCC
4	CCCCCCCCn1cc(O)c(=O)cc1COC(=O)[C@@H](N)Cc1ccccc1

Test system: DU-145
Experiment: Cytotoxicity against human DU-145 cells
Format: functional, cell-based

Structure (SMILES)	IC50 [µM]
CC(C)(C)[Si](C)(C)OCc1cc(=O)c(O)c(C(C[N+](=O)[O-])c2cccc(Cl)c2)o1 (stereo not drawn)	14
CC(C)(C)[Si](C)(C)OCc1cc(=O)c(O)c(C(C[N+](=O)[O-])c2ccc(Br)cc2)o1 (stereo not drawn)	13

Test system: Bacillus subtilis
Experiment: Antibacterial activity against Bacillus subtilis
Format: functional

MIC [µg/mL]	Structure (SMILES)
8 (≈ 11 µM)	CCCC(=O)NC(CCCNC(=O)c1c(O)c(=O)ccn1C)(CCCNC(=O)c1c(O)c(=O)ccn1C)CCCNC(=O)c1c(O)c(=O)ccn1C
8 (≈ 9.81 µM)	CCCC(=O)NC(CCCNC(=O)c1c(O)c(=O)ccn1CCO)(CCCNC(=O)c1c(O)c(=O)ccn1CCO)CCCNC(=O)c1c(O)c(=O)ccn1CCO

Target: T1, Tyrosinase
Experiment: Inhibition of mushroom tyrosinase

IC50 [µM]	Structure (SMILES)
86.2	O=c1cc(CO)oc(CN2CCN(Cc3ccc(Cl)c(Cl)c3)CC2)c1O
0.06	O=c1cc(Cn2cc(COc3ccc4ccccc4c3)nn2)occ1O
0.06	O=c1cc(Cn2cc(COc3cccc4ccccc34)nn2)occ1O

Test system: Pseudomonas aeruginosa
Experiment: Antibacterial activity against Pseudomonas aeruginosa
Format: functional

MIC [µg/mL]	Structure (SMILES)
16 (≈ 22 µM)	CCCC(=O)NC(CCCNC(=O)c1c(O)c(=O)ccn1C)(CCCNC(=O)c1c(O)c(=O)ccn1C)CCCNC(=O)c1c(O)c(=O)ccn1C
16 (≈ 19.6 µM)	CCCC(=O)NC(CCCNC(=O)c1c(O)c(=O)ccn1CCO)(CCCNC(=O)c1c(O)c(=O)ccn1CCO)CCCNC(=O)c1c(O)c(=O)ccn1CCO
